US6677370B2, “Compositions and uses of dictyostatin compounds” (Harbor Branch Oceanographic Institution, Inc., priority 2000, dated 2004)
Read-outs that look alike come from different tables or passages of the source.

Columns and labels:
[1] = system: MES-SA/DX5 Taxol resistant uterine carcinoma; test: Cytotoxicity, MTT assay, MES-SA/DX5; type: cell-based, human; settings: for IC50: Homo sapiens, read-out: IC50 (Std dev) MES-SA/DX5; for Resistance, MES-SA/DX5 relative to MES-SA: ratio of IC50 values, resistant vs sensitive line; for resistance of MES-SA/DX5 cells: resistant vs Taxol-sensitive counterpart
Protocol: (§1) The cytotoxicity of dictyostatin-1 for various Taxol resistant and sensitive cell lines was compared to that of Taxol. The cell lines used were A549 human adenocarcinoma, MCF-7 human breast carcinoma, MCF-7ADR multi-drug resistant (Taxol resistant) human breast carcinoma, MES-SA human uterine carcinoma and MES-SA/DX5 Taxol resistant uterine carcinoma. All cell lines were maintained in Roswell Park Memorial Institute (RPMI) medium 1640 supplemented with 100 U/ml penicillin, […] streptomycin, 60 mg/ml 1-glutamine, 18 mM HEPES, 0.05 mg/ml gentamicin (Life Technologies, Gaithersburg, Md.) and 10% fetal bovine serum and cultured in plastic tissue culture flasks at 37° C. in humidified air containing 5% CO2. Stock cultures of cells were subcultured 1:10 every 3 to 4 days. To assess the antiproliferative effects of agents against the cells, 200 μl cultures (96-well tissue culture plates, Nunc, Denmark) were established at 1×10^5 cells/mL in TCM or TCM containing the test agent at 0.03-5.0 μg/ml. After 72 -h exposures, the effects of dictyostatin-1 and Taxol on cell proliferation were quantitated and IC50 values determined as follows: 75 μl of warm growth media containing 5 mg/ml 3-[4,5-dimethylthiazol-2-yl]-2,5-diphenyltetrazolium bromide (MTT) (M. C. Alley et al. (1988) Cancer Res. 48:589) was added to each well, cultures returned to the incubator, and left undisturbed for 3 hours. To spectrophotometrically quantitate formation of reduced formazan, plates are centrifuged (500×g, 10 minutes), culture fluids removed by aspiration, and 200 μl of acidified isopropanol (2 ml concentrated HC1/liter isopropanol) added per well. The absorbance of the resulting solutions is measured in a plate reader (Tecan Spectra SLT; TECAN U.S., Research Triangle Park, N.C.) at 570 nm and a 650 nm reference filter. The absorbance of tests wells is divided by the absorbance of drug-free wells, and the concentration of agent that results in 50% of the absorbance of untreated cultures (IC50) is determined by linear regression of logit-transformed data (D. J. Finney, Statistical Method in Biological Assay, Third Ed., pp.316-348, Charles Griffin Co., London, 1978). A linear relationship between tumor cell number and formazan production has been routinely observed over the range of cell densities observed in these experiments. The two standard drug controls (indicated above) are included in each assay as a check to monitor the drug sensitivity of each of the cell lines and IC50 values are determined for each drug-cell combination.

[2] = system: A549 human adenocarcinoma; test: Cytotoxicity, MTT assay, A549; type: cell-based; settings: read-out: IC50 (Std dev) A549
Protocol: (§2) The cytotoxicity of dictyostatin-1 for various Taxol resistant and sensitive cell lines was compared to that of Taxol. The cell lines used were A549 human adenocarcinoma, MCF-7 human breast carcinoma, MCF-7ADR multi-drug resistant (Taxol resistant) human breast carcinoma, MES-SA human uterine carcinoma and MES-SA/DX5 Taxol resistant uterine carcinoma. All cell lines were maintained in Roswell Park Memorial Institute (RPMI) medium 1640 supplemented with 100 U/ml penicillin, […] streptomycin, 60 mg/ml 1-glutamine, 18 mM HEPES, 0.05 mg/ml gentamicin (Life Technologies, Gaithersburg, Md.) and 10% fetal bovine serum and cultured in plastic tissue culture flasks at 37° C. in humidified air containing 5% CO2. […] To spectrophotometrically quantitate formation of reduced formazan, plates are centrifuged (500×g, 10 minutes), culture fluids removed by aspiration, and 200 μl of acidified isopropanol (2 ml concentrated HC1/liter isopropanol) added per well. The absorbance of the resulting solutions is measured in a plate reader (Tecan Spectra SLT; TECAN U.S., Research Triangle Park, N.C.) at 570 nm and a 650 nm reference filter. […] The two standard drug controls (indicated above) are included in each assay as a check to monitor the drug sensitivity of each of the cell lines and IC50 values are determined for each drug-cell combination.

[3] = system: MCF-7ADR multi-drug resistant (Taxol resistant) human breast carcinoma; test: Cytotoxicity, MTT assay, MCF-7/ADR; type: cell-based; settings: for IC50: Homo sapiens, NCI/ADR-RES, read-out: IC50 (Std dev) MCF-7/ADR; for Resistance, MCF-7/ADR relative to MCF-7: ratio of IC50 values, resistant vs sensitive line; for resistance of MCF-7ADR cells: resistant vs Taxol-sensitive counterpart
Protocol: as §1

[4] = system: PANC-1 human pancreatic adenocarcinoma cells; test: Immunofluorescent detection of effects on the microtubule matrix (anti-alpha-tubulin); type: cell-based; settings: PANC-1 cells, 100 nM, overnight
Protocol: Dictyostatin-1 was evaluated as to its effects on the microtubule network of cells using anti-alpha-tubulin monoclonal antibodies.
PANC-1 human pancreatic adenocarcinoma cells were maintained in tissue culture media (TCM=Roswell Park Memorial Institute (RPMI) medium 1640 supplemented with 100 U/ml penicillin, […] streptomycin, 60 mg/ml 1-glutamine, 18 mM HEPES, 0.05 mg/ml gentamicin and 10% fetal bovine serum) and cultured in plastic culture flasks at 37° C. in humidified air containing 5% CO2. Stock cultures of PANC-1 cells were subcultured 1:10 every 3 to 4 days. On day 1, 1.25×10^5 PANC-1 cells were sub-cultured in TCM overnight at 37° C. in 5% CO2 on 22 mm^2 coverslips in 6-well microtiter plates. On day 2, TCM was removed and replaced with various concentrations of dictyostatin-1, or Taxol, in TCM or TCM without drug (control) and incubated overnight at 37° C. in 5% CO2. On day 3, TCM was removed and cells attached to coverslips were fixed with a 3.7% formaldehyde solution in Dulbecco's PBS for 10 minutes at room temperature. Cells were permeabilized with a 2% Triton X-100 solution, 2 ml per well, for 5 minutes at room temperature and washed twice in Dulbecco's PBS prior to staining. […]

[5] = system: PANC-1 human pancreatic adenoma cells; test: Cell cycle progression of PANC-1 cells (propidium iodide flow cytometry); type: cell-based; settings: 100 nM, 24 hours; for percentage of cells in S phase: untreated control 5.8%; for percentage of cells in G2/M phase: untreated control 34.4%; for percentage of cells comprising the G1 population: untreated control 59.8%
Protocol: Cell cycle studies were initiated in order to pinpoint a specific phase within the cell cycle in which dictyostatin-1 was exerting its antiproliferative effect. PANC-1 human pancreatic adenoma cells were used as cell cycle targets to compare the effects on perturbation of the cell cycle of dictyostatin-1 to the known mitotic spindle inhibitor […]. Cell cycle analyses were performed as follows: PANC-1 cells were incubated at 37° C. in 5% CO2 in air in the presence or absence of varying concentrations of dictyostatin-1 or Taxol for 24 hours.
Cells were harvested, fixed in ethanol and stained with 0.02 mg/ml of propidium iodide (P.I.) together with 0.1 mg/ml of RNAse A. This procedure permeabilizes cells and allows entry of P.I. to stain DNA (propidium iodide also stains double stranded RNA, so RNAse is included in the preparation to exclude this possibility). Stained preparations were analyzed on a Coulter EPICS ELITE with 488 nm excitation. Fluorescence measurements and resulting DNA histograms were collected from at least 3,000 P.I. stained cells at an emission wavelength of 690 nm. Raw histogram data was further analyzed using a cell cycle analysis program (Multicycle, Phoenix Flow Systems).

[6] = system: MCF-7 human breast carcinoma; test: Cytotoxicity, MTT assay, MCF-7; type: cell-based; settings: read-out: IC50 (Std dev) MCF-7
Protocol: as §2

[7] = system: MES-SA human uterine carcinoma; test: Cytotoxicity, MTT assay, MES-SA; type: cell-based; settings: read-out: IC50 (Std dev) MES-SA
Protocol: as §2

cellular proliferation = settings: literature; cited from earlier work
[8] = system: purified bovine brain tubulin; test: Polymerization of purified tubulin (optical density at 350 nm); type: biochemical; settings: 10 μM
Protocol: Polymerization of purified bovine brain tubulin (Cytoskeleton Inc., Denver, Co.) was followed by changes in the optical density of tubulin solutions at 350 nm in a Hitachi U-3010 spectrophotometer equipped with a SPR-10 electronic thermostatted cell holder. Stock solutions of tubulin were diluted on ice in G-PEM buffer (1 mM GTP, 80 mM PIPES (piperazine-N,N′-bis(2-ethanesulfonic acid]sesquisodium salt), 1 mM EGTA (ethylene glycol-bis(b-amine ethyl ether) N,N,N,N′-tetra acetic acid), 0.5 mM magnesium chloride; pH 6.8) to a final concentration of 1 mg/ml. The instrument was zeroed on this solution at 4° C. Dictyostatin-1, was then added to the tubulin to a final concentration of 10 μM and quickly mixed. The polymerization was monitored by observing light scattering changes in optical density at 350 nm using the spectrophotometer. The temperature was varied for a time period of […] beginning at 4° C. for 1 minute, then linearly ramping to 35° C. over 30 minutes, with a hold of one minute at 35° C., then linearly decreasing to 4° C. over 15 minutes, with this temperature being maintained for an additional 15 minutes. Absorbance was measured and recorded over the entire time period.

Structure (SMILES) | Resistance, MES-SA/DX5 relative to MES-SA [1] [×] | resistance of MES-SA/DX5 cells [1] [fold] | Resistance, MCF-7/ADR relative to MCF-7 [3] [×] | resistance of MCF-7ADR cells [3] [fold] | effect on microtubule network (bundling) [4] | percentage of cells in S phase [5] [%] | percentage of cells in G2/M phase [5] [%] | percentage of cells comprising the G1 population [5] [%] | IC50 values, inhibition of cellular proliferation (cellular proliferation) | further results
CC(=O)O[C@H]1C(=O)[C@@]2(C)[C@H]([C@H](OC(=O)c3ccccc3)[C@]3(O)C[C@H](OC(=O)[C@H](O)[C@@H](NC(=O)c4ccccc4)c4ccccc4)C(C)=C1C3(C)C)[C@]1(OC(C)=O)CO[C@@H]1C[C@@H]2O [Taxol] | 501 | 501 | 1332 | 1332 | characteristic formation of microtubular “bundles” but also a substantial amount of “non-bundled” microtubular material still remained in the cytoplasm | 27 | 47 | 26 |  | IC50 ([1]; MES-SA/Dx5, 72-h exposure, MTT): 1650 nM; IC50 ([2]; A549, 72-h exposure, MTT): 5.13 nM; IC50 ([3]; 72-h exposure, MTT): 3330 nM; IC50 ([6]; MCF7, 72-h exposure, MTT): 2.5 nM; IC50 ([7]; 72-h exposure, MTT): 3.3 nM
C=C1CC(C)C[C@@H]2CC=C[C@@H](C/C=C\C(=O)O[C@@H]3C[C@H](O[C@@H]3/C=C/[C@H]3CC(C)=CCO3)[C@H](O)C(O)C1)O2 (stereo partly drawn) [isolaulimalide] |  |  |  |  |  |  |  |  | low micromolar range | 
C=C1C[C@H](C)C[C@@H]2CC=C[C@@H](C/C=C\C(=O)O[C@H]([C@@H](O)/C=C/[C@@H]3CC(C)=CCO3)C[C@@H]3O[C@H]3[C@@H](O)C1)O2 [Laulimalide] |  |  |  |  |  |  |  |  | low nanomolar range | 
C=C/C=C\C(C)C1OC(=O)/C=C\C=C\C(C)C(O)CC(O)/C=C\C(C)C(O)C(C)CC(C)CCC(O)C1C (stereo not drawn) [Dictyostatin-1] | 3 | 3 | 13 | 13 | extensive microtubule bundling resulting in almost complete depletion of non-bundled microtubular material in the cytoplasm | 30 | 35 | 36 |  | IC50 ([1]; MES-SA/Dx5, 72 h): 11 nM; IC50 ([2]; A549, 72 h): 0.95 nM; IC50 ([3]; 72 h): 20 nM; stability of polymerized tubulin on cooling ([8]; temperature decreased from 35° C. to 4° C.): did not substantially depolymerize upon reduction of the temperature; induction of tubulin polymerization ([8]; tubulin 1 mg/ml, temperature ramp 4° C. to 35° C.): induced tubulin polymerization with a maximum polymerization level reached at 35 °C; IC50 ([6]; MCF7, 72 h): 1.5 nM; IC50 ([7]; 72 h): 4.1 nM
